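Following 48 hours of exposure in 96-well plates, responses at five concentrations were used to interpolate endpoints linearly. GI50: concentration for 50% inhibition of growth.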 Active and inactive are the calls of the source. Rule as the data show it: active = GI50 up to about 1.1 µM and inactive = higher.
What was measured:
Test in all cases: NCI anticancer screen, dose series, 48 h
[1] = test system: NCI-H522
[2] = test system: RPMI-8226
[3] = test system: IGROV-1
[4] = test system: A549
[5] = test system: LXFL 529
[6] = test system: SR
[7] = test system: EKVX
[8] = test system: M14
[9] = test system: KM12
[10] = test system: COLO 205
[11] = test system: SK-MEL-2
[12] = test system: DLD-1
[13] = test system: OVCAR-8
[14] = test system: SW-620
[15] = test system: DMS-114
[16] = test system: UACC-62
[17] = test system: CAKI-1
[18] = test system: SF-539
[19] = test system: SF-295
[20] = test system: NCI-H460
[21] = test system: NCI-H23
[22] = test system: XF498
[23] = test system: HT-29
[24] = test system: HCT-15
[25] = test system: SK-OV-3
[26] = test system: CCRF-CEM
[27] = test system: NCI-H226
[28] = test system: HCT-116
[29] = test system: HL-60
[30] = test system: M19-MEL
[31] = test system: ACHN
[32] = test system: K562
[33] = test system: SK-MEL-5
[34] = test system: HOP-18
[35] = test system: HOP-92
[36] = test system: 786-0
[37] = test system: HOP-62
[38] = test system: SNB-78
[39] = test system: UO-31
[40] = test system: OVCAR-3
[41] = test system: OVCAR-5
[42] = test system: SF-268
[43] = test system: LOX IMVI
[44] = test system: SN12C
[45] = test system: DMS-273
[46] = test system: U-251
[47] = test system: MOLT-4
[48] = test system: OVCAR-4
[49] = test system: SK-MEL-28
[50] = test system: A498
[51] = test system: RXF 393
[52] = test system: SNB-19
[53] = test system: TK-10
[54] = test system: UACC-257
[55] = test system: RXF 631

Structure (SMILES): CC1(C)CCc2cc3c(cc2O1)OC(C)(C)C1c2c(ccc4c2CCC(C)(C)O4)OC31 (stereo not drawn)
- GI50 [1]: > 100 µM (inactive)
- GI50 [2]: > 100 µM (inactive)
- GI50 [3]: > 100 µM (inactive)
- GI50 [4]: > 100 µM (inactive)
- GI50 [5]: > 100 µM (inactive)
- GI50 [6]: > 100 µM (inactive)
- GI50 [7]: 64.6 µM (inactive)
- GI50 [8]: 42.9 µM (inactive)
- GI50 [9]: > 100 µM (inactive)
- GI50 [10]: > 100 µM (inactive)
- GI50 [11]: > 100 µM (inactive)
- GI50 [12]: > 100 µM (inactive)
- GI50 [13]: > 100 µM (inactive)
- GI50 [14]: > 100 µM (inactive)
- GI50 [15]: 98.4 µM (inactive)
- GI50 [16]: > 100 µM (inactive)
- GI50 [17]: 99.8 µM (inactive)
- GI50 [18]: > 100 µM (inactive)
- GI50 [19]: > 100 µM (inactive)
- GI50 [20]: > 100 µM (inactive)
- GI50 [21]: > 100 µM (inactive)
- GI50 [22]: > 100 µM (inactive)
- GI50 [23]: > 100 µM (inactive)
- GI50 [24]: > 100 µM
- GI50 [25]: > 100 µM (inactive)
- GI50 [26]: > 100 µM (inactive)
- GI50 [27]: > 100 µM (inactive)
- GI50 [28]: > 100 µM (inactive)
- GI50 [29]: 51.1 µM (inactive)
- GI50 [30]: > 100 µM (inactive)
- GI50 [31]: > 100 µM (inactive)
- GI50 [32]: > 100 µM (inactive)
- GI50 [33]: > 100 µM (inactive)
- GI50 [34]: < 0.01 µM (active)
- GI50 [35]: > 100 µM (inactive)
- GI50 [36]: > 100 µM (inactive)
- GI50 [37]: > 100 µM (inactive)
- GI50 [38]: > 100 µM (inactive)
- GI50 [39]: > 100 µM (inactive)
- GI50 [40]: 78.3 µM (inactive)
- GI50 [41]: 68.4 µM (inactive)
- GI50 [42]: > 100 µM (inactive)
- GI50 [43]: > 100 µM (inactive)
- GI50 [44]: > 100 µM (inactive)
- GI50 [45]: > 100 µM (inactive)
- GI50 [46]: > 100 µM (inactive)
- GI50 [47]: > 100 µM (inactive)
- GI50 [48]: > 100 µM (inactive)

Structure (SMILES): O=C(/C=C/c1ccc(O)cc1)OC[C@@H](O)COC1OC(CO)C(O)C(O)C1O (stereo partly drawn)
- GI50 [1]: > 100 µM (inactive)
- GI50 [3]: > 100 µM (inactive)
- GI50 [4]: > 100 µM (inactive)
- GI50 [6]: > 100 µM (inactive)
- GI50 [7]: > 100 µM (inactive)
- GI50 [8]: > 100 µM (inactive)
- GI50 [9]: > 100 µM (inactive)
- GI50 [13]: > 100 µM (inactive)
- GI50 [15]: > 100 µM (inactive)
- GI50 [19]: > 100 µM (inactive)
- GI50 [20]: > 100 µM (inactive)
- GI50 [21]: > 100 µM (inactive)
- GI50 [23]: > 100 µM (inactive)
- GI50 [25]: > 100 µM (inactive)
- GI50 [26]: > 100 µM (inactive)
- GI50 [27]: 94.2 µM (inactive)
- GI50 [28]: > 100 µM (inactive)
- GI50 [49]: > 100 µM (inactive)
- GI50 [50]: > 100 µM (inactive)
- GI50 [29]: > 100 µM (inactive)
- GI50 [30]: > 100 µM (inactive)
- GI50 [31]: > 100 µM (inactive)
- GI50 [32]: > 100 µM (inactive)
- GI50 [51]: > 100 µM (inactive)
- GI50 [35]: > 100 µM (inactive)
- GI50 [52]: > 100 µM (inactive)
- GI50 [37]: > 100 µM (inactive)
- GI50 [38]: > 100 µM (inactive)
- GI50 [39]: > 100 µM (inactive)
- GI50 [53]: > 100 µM (inactive)
- GI50 [41]: > 100 µM (inactive)
- GI50 [54]: > 100 µM (inactive)
- GI50 [55]: > 100 µM (inactive)
- GI50 [46]: > 100 µM (inactive)
- GI50 [47]: > 100 µM (inactive)

Source: ChEMBL document CHEMBL1201862, “PubChem BioAssay data set” (2004)
